Where two headings read alike, the source gives them in different places.
How the values were obtained:
[1] = Log P by HPLC on reversed phase columns (EEC directive 79/831 Annex V.A8; methods [a], [b], [c]); assay type: physicochemical; conditions: reversed phase HPLC column; HPLC on reversed phase columns, method [a]
Outline: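 Log P derived from retention times, interpolated linearly between bracketing straight-chain alkan-2-ones (3–16 carbons) of known Log P. Eluents ran acetonitrile 10% to 95% against water with 0.1% formic acid ([a], acidic), 0.001 M ammonium acetate ([b], neutral) or 0.1% phosphoric acid ([c], acidic); UV read-out.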

[2] = system: Puccinia recondita; assay: Example B: in vivo preventive test on Puccinia recondita (brown rust on wheat); conditions: 264 h, read-out: efficacy
Procedure: Example B: In Vivo Preventive Test on Puccinia Recondita (Brown Rust on Wheat)
(§1) The active ingredients were made soluble and homogenized in a mixture of Dimethyl sulfoxide/Acetone/Tween® 80 and then diluted in water to the desired concentration.
(§2) The young plants of wheat were treated by spraying the active ingredient prepared as described above. Control plants were treated only with an aqueous solution of Acetone/Dimethyl sulfoxide/Tween® 80.
After 24 hours, the plants were contaminated by spraying the leaves with an aqueous suspension of Puccinia recondita spores. The contaminated wheat plants were incubated for 24 hours at 20° C. and at 100% relative humidity and then for 10 days at 20° C. and at 70-80% relative humidity.
(§3) The test was evaluated 11 days after the inoculation. 0% means an efficacy which corresponds to that of the control plants while an efficacy of 100% means that no disease was observed.

[3] = system: Septoria tritici; assay: Example C: in vivo preventive test on Septoria tritici (leaf spot on wheat); conditions: Zymoseptoria tritici, 576 h, read-out: efficacy
Procedure: Example C: In Vivo Preventive Test on Septoria Tritici (Leaf Spot on Wheat)
as §1, §2
After 24 hours, the plants were contaminated by spraying the leaves with an aqueous suspension of Septoria tritici spores. The contaminated wheat plants were incubated for 72 hours at 18° C. and at 100% relative humidity and then for 21 days at 20° C. and at 90% relative humidity.
The test was evaluated 24 days after the inoculation. 0% means an efficacy which corresponds to that of the control plants while an efficacy of 100% means that no disease was observed.

[4] = system: Sphaerotheca fuliginea; assay: Example D: in vivo preventive test on Sphaerotheca fuliginea (powdery mildew on cucurbits); conditions: Podosphaera fuliginea, 360 h, read-out: efficacy
Procedure: Example D: In Vivo Preventive Test on Sphaerotheca Fuliginea (Powdery Mildew on Cucurbits)
as §1
The young plants of gherkin were treated by spraying the active ingredient prepared as described above. Control plants were treated only with an aqueous solution of Acetone/Dimethyl sulfoxide/Tween® 80.
After 24 hours, the plants were contaminated by spraying the leaves with an aqueous suspension of Sphaerotheca fuliginea spores. The contaminated gherkin plants were incubated for 72 hours at 18° C. and at 100% relative humidity and then for 12 days at 20° C. and at 70-80% relative humidity.
The test was evaluated 15 days after the inoculation. 0% means an efficacy which corresponds to that of the control plants while an efficacy of 100% means that no disease was observed.

[5] = system: Uromyces appendiculatus; assay: Example E: in vivo preventive test on Uromyces appendiculatus (bean rust); conditions: 264 h, read-out: efficacy
Procedure: Example E: In Vivo Preventive Test on Uromyces Appendiculatus (Bean Rust)
as §1
The young plants of bean were treated by spraying the active ingredient prepared as described above. Control plants were treated only with an aqueous solution of Acetone/Dimethyl sulfoxide/Tween® 80.
After 24 hours, the plants were contaminated by spraying the leaves with an aqueous suspension of Uromyces appendiculatus spores. The contaminated bean plants were incubated for 24 hours at 20° C. and at 100% relative humidity and then for 10 days at 20° C. and at 70-80% relative humidity.
as §3

[6] = 500 ppm of active ingredient, wheat plants, preventive spray, evaluated 11 days after inoculation
[7] = 500 ppm of active ingredient, wheat plants, preventive spray, evaluated 24 days after inoculation
[8] = 500 ppm of active ingredient, gherkin plants, preventive spray, evaluated 15 days after inoculation
[9] = 500 ppm of active ingredient, bean plants, preventive spray, evaluated 11 days after inoculation

chromatographic logP [1]	Structure (SMILES)	pest or weed control at 500 ppm [2, 6]	pest or weed control at 500 ppm [3, 7]	pest or weed control at 500 ppm [4, 8]	pest or weed control at 500 ppm [5, 9]	pest or weed control at 500 ppm [2]	pest or weed control at 500 ppm [3]	pest or weed control at 500 ppm [4]	pest or weed control at 500 ppm [5]
1.75	NC(=S)c1cncn1CC(O)(c1ccc(Br)cc1Cl)C1(F)CC1 (stereo not shown) [I-432, 3-[2-(4-bromo-2-chloro-phenyl)-2-(1-fluorocyclopropyl)-2-hydroxy-ethyl]imidazole-4-carbothioamide]	90 to 100%	90 to 100%	90 to 100%	90 to 100%				
3.55	CC(O)(Cn1cncc1C#N)c1ccc(Oc2ccc(Br)cc2)cc1Cl (stereo not shown) [I-195, 3-[2-[4-(4-bromophenoxy)-2-chloro-phenyl]-2-hydroxy-propyl]imidazole-4-carbonitrile]	90 to 100%	90 to 100%	90 to 100%	90 to 100%				
2.25	OC(Cn1cncc1F)c1cnc(Oc2ccc(Br)cc2)cc1C(F)(F)F (stereo not shown) [I-97, 1-[6-(4-bromophenoxy)-4-(trifluoromethyl)-3-pyridyl]-2-(5-fluoroimidazol-1-yl)ethanol]	70 to 79%	90 to 100%	90 to 100%	90 to 100%				
3.62	CC(O)(Cn1cncc1C#N)c1ccc(Oc2ccc(Br)cc2)cc1C(F)(F)F (stereo not shown) [I-208, 1-{2-[4-(4-bromophenoxy)-2-(trifluoromethyl)phenyl]-2-hydroxypropyl}-1H-imidazole-5-carbonitrile]	90 to 100%	70 to 79%	90 to 100%	90 to 100%				

Structure (SMILES)	chromatographic logP [1]	pest or weed control at 500 ppm [2, 6]	pest or weed control at 500 ppm [3, 7]	pest or weed control at 500 ppm [4, 8]	pest or weed control at 500 ppm [5, 9]	pest or weed control at 500 ppm [2]	pest or weed control at 500 ppm [3]	pest or weed control at 500 ppm [4]	pest or weed control at 500 ppm [5]
N#Cc1cncn1CC(O)(c1ccc(-c2ccc(Cl)cc2)cc1Cl)C1(F)CC1 (stereo not shown) [I-393, 3-[2-[2-chloro-4-(4-chlorophenyl)phenyl]-2-(1-fluorocyclopropyl)-2-hydroxy-ethyl]imidazole-4-carbonitrile]	3.64					90 to 100%	80 to 89%	90 to 100%	90 to 100%

From US20200031778A1, “NOVEL 5-SUBSTITUTED IMIDAZOLYLMETHYL DERIVATIVES” (Bayer CropScience Aktiengesellschaft, priority 2016, published 2020)
